Laboratory results as given in patent US20110130460A1, “INCREASED CREATINE RETENTION WITH SOLUBLE FIBRES” (priority 2007, published 2011).

Assays:
[1] = Urinary creatine and creatinine excretion after a single 2 g creatine dose; conditions: whatever the form, excretion slightly less than 1 g/24 h
Method: (§1) The health status questionnaire was filled in again.
An aliquot (10 mL) was stored at −20° C.

[2] = Plasma and erythrocyte creatine and creatinine after one week creatine supplementation (3×2 g per day); assay type: in vivo, human
Method: as §1
(§2) Venous blood was collected on heparin as an anticoagulant. The tubes were placed immediately on ice and centrifuged at 3000 g for 6 min at 4° C. Plasma (900 μL) was deproteinized with sulfosalicylic acid 5% (300 μL) and centrifuged again at 3000 g for 6min. NaOH 0.1M (90 μL) was added to supernatant (300 μL) to obtain a pH value of about 7.8. Samples were stored at −20° C.
After the first centrifugation, erythrocytes were washed twice with a similar volume of physiological water (0.9% NaCl, centrifugation: 1000 g, 5 min, 4° C.). After three frozen and defrozen procedures, erythrocytes (300 μL) were deproteinized with sulfosalicylic acid 5% (600 μL) and then centrifuged at 3000 g during 6 min. Supernatant was collected and centrifuged again. The clear supernatant was neutralized with NaOH 0.1M.
(§3) An aliquot (10 mL) was stored at −20° C. […] An aliquot was stored at −80° C.

[3] = Creatine and creatinine in 24 h feces by HPLC; assay type: in vivo, human; conditions: basal or supplemented, could not be quantified
Method: as §1, §3
Both creatine and creatinine content in feces was analyzed by HPLC at 205 nm. After dilution of a feces aliquot in 0.045M ammonium sulfate containing an internal standard (4-[2-aminoethyl]-benzene sulfonamide), the sample was filtered on a 10 kDa membrane. The following conditions were used to identify creatine: 2 Beckman RP-C18 Ultrasphere ODS columns 5μ 25 cm*4.6 mm; elution: A/B (70/30) with 0.05% anhydrous trifluoroacetic acid (TFA) at 1.0 mL/min; A: 0.1% H3PO4 in deionised H2O; B: 1.4 mg sodium dodecylsulfate/mL acetonitril. […] The values reported for creatine in the results section correspond to highest possible estimates including a probable overestimation.

[4] = 21 g/d creatine for 2 weeks; levels within the normal range; cited from earlier work
[5] = Questionnaire on side effects after creatine supplementation; assay type: in vivo, human; conditions: after each period of one week creatine supplementation vs initial visit
Excerpt: as §1

[6] = Plasma creatine kinetics after a single 2 g creatine dose (one-open compartmental model); assay type: in vivo, human
Method: as §1, §2, §3
Using a Marquardt algorithm, all kinetics were fitted with the following equation:
C(FD/V*(ka/(ka−kel))*(exp(−kel*(t−tlag))−exp(−ka*(t−tlag)))) (equation 1)
where C is the plasma creatine concentration minus the basal concentration (μM) • if C 0, then data were removed • F is the bioavailability • D is the dose (2 g or 15 300 μmol) • is the volume of distribution • ka is the velocity constant of absorption (first order, h^−1) • kel is the velocity constant of elimination (first order, h^−1) • t is the time (h) • tlag is the lag-time (h)
This equation corresponds to a one-open compartmental model in which ka, kel and tlag are the primary parameters. Knowing their value, new kinetic parameters of plasma creatine were calculated:
AUCO,∞:the area under the curve integrated from zero to infinity
Since the bioavailability (F) may not be measured, only the apparent volume of distribution and the apparent clearance can be estimated:
Vd: the apparent volume of distribution (Vd=V/F, L)
C: the apparent clearance (Cl=Kel·Vd, L.h^−1)

Creatinine urinary excretion, effect of creatine ingestion [1]: not affected
erythrocyte creatinine concentration during the experiment ([2]; basal about 25 μM): remained stable
plasma creatine concentration after supplementation, fold higher ([2]; one week, 3×2 g per day, fasted state, post vs pre): 11±2.5 fold
increase of erythrocyte creatine concentration after supplementation ([2]; one week, 3×2 g per day, independent of the form ingested): 88±22%
maximal estimated value of creatine in feces [3]: ≤ 50±5.7 μg per gram fresh feces
apparent volume of distribution relative to body mass ([6]; after ingestion of 2 g creatine, not influenced by the form ingested): about 75 % of body mass
change of plasma creatinine concentration after single dose ([6]; eight hours following ingestion of 2 g creatine, independent of treatment, basal 53.5±1.50 μM): changed by only a few μM
half-life ([6]; human, plasma, oral, after ingestion of 2 g creatine, mean over the forms, read-out: mean half-life of elimination (converted)): 1.09 ± 0.06 h
Structure (SMILES): CN(CC(=O)O)C(=N)N [creatine]
excretion of methylamine and formaldehyde [4]: increased excretion of methylamine and formaldehyde
frequency of declared health troubles (side effects) [5]: No difference was observed in the frequency of declared health troubles except for muscle cramps which were less frequently reported
